The values that follow are results of earlier work, collected in patent publication US9168226B1, “Injectable particle” (priority 2015, dated 2015).

≈ marks a conversion by molar mass, not a printed value. Where two headings read alike, the source gives them in different places.

Broadly, the aqueous solubility is how much of the substance goes into solution per volume. In the case of `Cc1nc(Nc2ncc(C(=O)Nc3c(C)cccc3Cl)s2)cc(N2CCN(CCO)CC2)n1` [dasatinib, Dasatinib], the aqueous solubility was 18400 µg/mL (≈ 37.7 mM) (pH 2.6) and 8 µg/mL (≈ 0.0164 mM) (pH 6.0).
